In PubChem BioAssay (NCI) one finds TGI data, which are given here for 16 compounds.

Common to all, as to assay: NCI-60 cell line screen, 48 h
Test [1] deals with A549 NSCLC.
In test [2] the test system is ACHN renal.
The subject of test [3] is EKVX NSCLC.
Test [4] concerns HCT-116 colon.
Test [5] deals with HCT-15 colon.
The subject of test [6] is HOP-62 NSCLC.
For test [7], the system named is LOX IMVI melanoma.
Test [8] concerns M14 melanoma.
Test [9] has as its system MDA-MB-435.
Test [10] has as its system MDA-N.
Test [11] relates to RPMI-8226 leukemia.
For test [12], the system named is SK-MEL-5 melanoma.
In test [13] the test system is SW-620 colon.
The subject of test [14] is TK-10 renal.
In test [15] the test system is UACC-257 melanoma.
The subject of test [16] is UACC-62 melanoma.
The test system of test [17] is CCRF-CEM leukemia.
In test [18] the test system is MALME-3M melanoma.
In test [19] the test system is SR leukemia.

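Step 1: Grow cells in 96-well plates. Step 2: Expose to compound for 48 hours at 5 concentrations. Step 3: Interpolate endpoints linearly; if unreached, use highest concentration. The concentration for full growth arrest is given as TGI.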

Consider `C1CSCCSCCSCCSCCS1`, for which the TGI in test [1], in test [2], in test [3], in test [4], in test [5] and in test [6] was above 100 µM in each case. Further, the TGI in test [7], in [8], in [9], in test [10], in test [11] and in test [12] was above 100 µM throughout. For the same compound, the TGI in test [13], in [14], in test [15] and in [16] was above 100 µM each time.

Regarding `Cc1csc2nc(-c3cc([N+](=O)[O-])c(Cl)cc3Cl)c(/C=N/N=C(N)N)n12`, the TGI in test [1] was 40.9 µM; in [2], 30.9 µM; in [17] it was above 100 µM; in test [3], 38.2 µM; in test [4], 39.5 µM; in test [5] it was 45.2 µM. In addition, the TGI in test [6] stood at 35 µM; in test [7], 33.1 µM; in [8] it was 34.3 µM; in test [18] it was 35.3 µM; in test [9], 34.7 µM; in [11], 56.5 µM. The TGI stood at 30.9 µM in test [12]; 4.84 µM in test [19]; 32.5 µM in test [13]; 32.4 µM in test [14]; 32.8 µM in [15]; 27.2 µM in test [16].

As to `Nc1ncnc2c1ccn2CC#CCO`, the TGI in [1], in [2], in [17], in [3], in test [4] and in [5] was above 100 µM in each case. The TGI in [6], in test [7], in test [8], in test [18], in [9] and in test [10] was above 100 µM each time. For the same compound, the TGI in [11], in test [12], in test [13], in test [14], in [15] and in [16] was above 100 µM each time.

`CN1N=C(c2ccncc2)OC1c1cccc(F)c1` (stereo not drawn): the TGI in test [1], in test [2], in test [17], in test [3], in test [4] and in test [5] was above 100 µM throughout. Moreover, the TGI in test [6], in test [7], in test [8], in test [9], in test [10] and in [11] was above 100 µM in each case. For the same compound, the TGI in test [12], in test [13], in test [14], in test [15] and in test [16] was above 100 µM each time.

With `C1=NN2C(c3ccccc3)=NOC2C2C(c3ccccc3)=NOC12` (stereo not drawn), the TGI in test [1], in test [2], in test [3], in test [4], in test [5] and in test [6] was above 100 µM in each case. Moreover, the TGI in [7], in [8], in test [18], in [10], in test [12] and in [14] was above 100 µM in each case. Besides, the TGI in test [15] and in test [16] was above 100 µM each time.

Turning to `N#Cc1c(C#N)c(SSc2c(C#N)c(C#N)c(N)n2-c2cccc3ccccc23)n(-c2cccc3ccccc23)c1N`, the TGI in test [1] worked out at 43.7 µM; in test [2], 13.1 µM; in test [3], 10.1 µM; in test [4] it was 14.1 µM; in test [5], 4.01 µM; in test [6], 49.9 µM. Besides, the TGI in test [8] is 8.4 µM; in test [18] it was 3.4 µM; in test [9], 36.5 µM; in [10], 12.4 µM; in test [11] it was above 100 µM; in [12], 41.8 µM. Besides, the TGI in test [13] was above 100 µM; in [14], 40.9 µM; in [15], 37.6 µM; in test [16], 46.6 µM.

As to `COC(=O)c1cc(/C=C/C(=O)Cc2ccccc2)cn1S(=O)(=O)c1ccccc1`, the TGI in test [1], in test [2], in test [17], in test [3], in test [4] and in test [5] was above 100 µM in each case. Further, the TGI in [6], in [7], in [8], in test [18], in test [10] and in [12] was above 100 µM each time. Besides, the TGI in [19], in test [14], in test [15] and in test [16] was above 100 µM throughout.

In the case of `COC1(OC)CCN(Cc2ccccc2)C1=O`, the TGI came out at 32.3 µM in [1]; 19.7 µM in test [2]; 6.3 µM in test [17]; 29.7 µM in [3]; 13.9 µM in test [4]; 38.6 µM in test [5]. For the same compound, the TGI was 38.6 µM in [6]; 16.6 µM in [7]; 23 µM in test [8]; above 100 µM in [18]; 29.8 µM in test [9]; 22.6 µM in [10]. Besides, the TGI in test [11] stood at 42.8 µM; in test [12], 29.2 µM; in test [13], 7.28 µM; in [14] it was 29.7 µM; in test [15] it was 28.6 µM; in test [16], 26.1 µM.

Consider `O=C(c1ccccc1)c1ccc(N2C(=O)/C(=C/c3cccc(Oc4ccccc4)c3)N=C2c2ccccc2)c(N2C(=O)/C(=C/c3cccc(Oc4ccccc4)c3)N=C2c2ccccc2)c1`, for which the TGI in [1], in test [2], in [17], in test [3], in [4] and in [5] was above 100 µM each time. In addition, the TGI was above 100 µM in [6]; above 100 µM in [7]; above 100 µM in test [8]; above 100 µM in test [18]; 31.5 µM in test [9]; 69 µM in test [10]. In addition, the TGI was 96.4 µM in test [11]; 30.7 µM in test [12]; above 100 µM in [13]; 79.4 µM in test [14]; 71.7 µM in test [15]; 24.5 µM in test [16].

`C=C1N(C)c2ccc(S(=O)(=O)c3ccc4c(c3)C(C)(C)C(=C)N4C)cc2C1(C)C`: the TGI in test [1], in test [2], in test [17], in [3], in [4] and in test [5] was above 100 µM throughout. For the same compound, the TGI in test [6] was above 100 µM; in [8], above 100 µM; in [18], 79 µM; in test [9] it was above 100 µM; in test [10] it was above 100 µM; in test [11] it was 35.5 µM. The TGI in test [12] is 43.6 µM; in test [13] it was above 100 µM; in test [14] it was above 100 µM; in test [15] it was above 100 µM; in test [16], above 100 µM.

Regarding `CCOC(=O)c1ccc(N=C2Sc3nc4ccccc4n3C2=Nc2ccc(C(=O)OCC)cc2)cc1`, the TGI in test [1] was 69.8 µM; in [2], 57.2 µM; in test [17], above 100 µM; in test [3] it was above 100 µM; in test [4] it was 19.2 µM; in test [5] it was above 100 µM. Further, the TGI in [6] was 46.5 µM; in test [7], 81.8 µM; in test [8], 37.1 µM; in test [18] it was 51.8 µM; in test [9], above 100 µM; in test [10] it was 65 µM. Besides, the TGI is 63.2 µM in test [12]; above 100 µM in test [13]; 32.6 µM in test [14]; above 100 µM in test [15]; 54.4 µM in test [16].

Turning to `COc1cc2c(cc1NC(=O)c1ccccc1)c1c(n2S(=O)(=O)c2ccccc2)CCN(S(=O)(=O)c2ccccc2)C1`, the TGI in test [1], in test [2], in [17], in test [4], in test [5] and in [6] was above 100 µM throughout. Further, the TGI in test [7], in test [8], in test [9], in test [11], in [12] and in test [19] was above 100 µM in each case. Also, the TGI in test [13], in [15] and in test [16] was above 100 µM in each case.

For the compound `Nc1ccc(Oc2ccc(C34CC5C6CC7(c8ccc(Oc9ccc(N)cc9)cc8)CC5C(C3)C(C7)C6C4)cc2)cc1`, the TGI in [1], in [2], in test [17], in [3], in test [4] and in test [5] was above 100 µM throughout. Also, the TGI in test [6], in test [7], in test [8], in test [18], in [9] and in [10] was above 100 µM each time. Further, the TGI in [11], in test [12], in test [13], in [14], in test [15] and in test [16] was above 100 µM throughout.

Consider `CC1=CC2(C)C=C[C@@H]1C(=O)[C@@]1(C)CC[C@@](O)(C(C)C)[C@H]1CC2`, for which the TGI in test [1] was above 100 µM; in [2], 45.9 µM; in [17], 53.4 µM; in test [3], 63.1 µM; in test [4], 32.2 µM; in test [5] it was 55.8 µM. Also, the TGI came out at 35.2 µM in test [6]; 39 µM in test [7]; 35.8 µM in [8]; 36.2 µM in [18]; 43.2 µM in test [9]; 47.5 µM in test [10]. For the same compound, the TGI in test [11] is 62 µM; in test [12] it was 34 µM; in test [13], 37.7 µM; in test [14] it was above 100 µM; in test [15], 34.1 µM; in [16] it was 45.5 µM.

In the case of `Cc1cc2c(cc1Cl)SC(NNCCO)=NS2(=O)=O`, the TGI in test [2], in [17], in [3], in [4], in test [5] and in test [6] was above 100 µM throughout. For the same compound, the TGI in [7], in [8], in test [9], in test [11], in [12] and in test [19] was above 100 µM each time. Further, the TGI in [13], in test [14], in test [15] and in test [16] was above 100 µM each time.

For `CCCCC/C=C\C=C\CCCCCCCCC(=O)OC`, the TGI in test [1], in test [2], in test [3], in [4], in test [5] and in test [6] was above 100 µM throughout. Moreover, the TGI was 87.9 µM in [7]; above 100 µM in test [8]; above 100 µM in [18]; above 100 µM in test [10]; above 100 µM in test [11]; above 100 µM in test [12]. For the same compound, the TGI in test [19], in test [13], in [14] and in test [15] was above 100 µM throughout.
